Consider four compounds from patent publication US5747503A, “Selective inhibitors of biogenic amine transporters” (priority 1996, dated 1998).

Entries after “also recorded” stand apart in the source; their conditions may differ. Read-outs that look alike come from different tables or passages of the source.

One test addresses T1, DA transporter (Rattus norvegicus, UniProt P23977).
T1 construct: Striata were dissected using glass manipulators; from tissue; host or cells: striatum of male Sprague-Dawley rats, membranes
Briefly: [^3 H]CFT binding to DA transporter. The method, then:
For [^3 H]J2B-carbomethoxy-3B-(4-fluorophenyl)-tropane (CFT, WIN35,428) binding assays, male Sprague-Dawley rats (200 to 300 gm) were anesthetized with C02 gas, and decapitated. Striata were dissected using glass manipulators, placed in small plastic containers, and then allowed to freeze by placing the container in dry ice.
Striata collected in this way were stored at […]. On the day of the assay, each striatum was placed in ice-cold binding buffer (BB: 55.2 mM sodium phosphate buffer, pH 7.4, 5 ml per caudate), and homogenized while still frozen with a Polytron. The homogenate was centrifuged for 10 min at 30,000×g, and the pellet was resuspended in an equal volume of BB. The homogenate was recentrifuged, and the pellet was resuspended in an equal volume of BB. An aliquot was saved for determination of protein (0.5 ml), and the remaining homogenate was brought up to a final volume of 22 ml/striatum using ice-cold BB. […] Aliquots of membranes were then used in the radioligand binding assays.
The [^3 H]nisoxetine assay for the norepinephrine transporter (NE) was carried out as described (Rothman, et al. (1993), supra; Tejani-Butt, S. M., et al. Eur. J. Pharmacol. 191:239-243 (1990)). DA transporters were labeled with [^3 H)CFT with minor modifications of published protocols (Madras, B. K., et al. Mol. Pharmacol. 36: 518-524 (1989)). Briefly, 12×75 mm polystyrene test tubes were prefilled with 100 μl of drug, 100 μl of radiolabeled (1 nM final concentration), 50 μl of buffer. Drugs were dissolved in BB containing 1 mg/ml bovine serum albumin (BB/BSA). Radioligands were made to a final concentration in a protease inhibitor cocktail containing 1 mg/ml BSA {BB containing chymostatin (25 μg/ml), leupeptin (25 μg/ml), EDTA (100 μM), and EGTA (100 μM)}. The assay was initiated by the addition of 750 μl of membranes, prepared as described above. Brandel cell harvesters were used to filter the samples over Whatman GF/B filters, which were presoaked in wash buffer (ice-cold 10 mM TRIS-HCL, pH 7.4 containing 150 mM NaCl) containing 2% polyethylenimine. In this procedure, samples were filtered and then washed with two 4 ml aliquots of ice-cold wash buffer. Nonspecific binding was defined using 10 μM (final concentration) GBR12909. All subsequent steps were identical to those described above.
(§1) Inhibition curves were fit to the two parameter logistic equation for the best-fit estimates of the IC50 using nonlinear least squares curve fitting methods as previously described (Rothman et al. (1993), supra); Jones, S. M. and Rogawski, M. A. Mol. Neuropharmacol. 2: 303-310 (1992)).
Synaptosomal uptake and ligand binding assays were conducted as described
Preliminary experiments were conducted to determine the doserange
The data of two experiments were
pooled, and fit to the two parameter logistic equation for the bestfit

The test system of test [1] is NMDA receptor. As to the kind of experiment: NMDA-induced current in cultured hippocampal neurons, whole-cell recording. Format: cell-based, rat. Particulars: for IC50: Table 2. The method, then: Whole-cell recordings of NMDA-induced currents in cultured rat hippocampal neurons were carried out as described previously (Subramaniam, S., et al. Neurosci. Lett. 147: 213-216 (1992)). Hippocampal neurons grown in primary culture from 19-day-old Sprague-Dawley rat embryos were used 7-14 days after plating. The extracellular recording solution consisted of (in mM): 140 NaCl, 5 KCl, 0.1 CaCl2, and 10 HEPES (osmolality, 315-325 mOsm; pH, 7.4). Tetrodotoxin (1 μM) and strychnine (1 μM) were added to block Na+channel currents and glycine-activated Cl^- currents, respectively. Patch pipettes (2-5 M.OMEGA.) were prepared from filament-containing thin wall glass capillary tubes and filled with an intracellular solution that consisted of (in mM): 145 CsCl, 2 MgCl2, 5 HEPES, 0.1 CaCl2, and 1 EGTA (osmolality, 310 mOsm; pH, 7.4). Drugs were dissolved in recording solution and applied via a rapid gravity-fed perfusion system. Flow of the drug solutions was regulated by a microvalve operated by a programmable controller.
as §1

A further test concerns the target PCP site 1. Briefly: [^3 H](+)-MK801 binding to PCP site 1. More on the design: species or system guinea pig. The method, then:
Large batches of frozen membranes were prepared with minor modifications of published procedures (Rothman, et al. (1989), supra). Twenty to thirty frozen guinea pig brains with cerebellum were thawed for 15 minutes and homogenized with a Polytron in ice-cold 5 mM Tris-HCl, pH 8.0 (10 ml/brain). The homogenate was centrifuged at 37,000×g for 10 minutes, and the pellet was washed by resuspension in the same volume of buffer followed by recentrifugation. The pellets were resuspended in an equal volume of 5 mM Tris-HCl, pH 8.0, and the concentration was adjusted to 50 mM by the addition of 1M Tris-HCl, pH 8.0. The homogenate was centrifuged for 10 min at 37,000×g. The pellets were then washed three times by resuspension and centrifugation using 50 mM Tris-HCl, pH 8.0. The final pellets were resuspended in the Tris-HCl buffer (0.5 ml/brain), pooled and 1 ml aliquots were distributed to microfuge tubes, which were stored at -70° for assay. […]
as §1
^a The binding assays for PCP (site 2) and PCP (site 1) were conducte
as previously reported (Rothman, R. B., et al., In: Multiple Sigma and PC
Receptor Ligands: Mechanisms for Neuromodulation and Protection 307-330
(Domino, E. F. and Kamenka, J. M., eds., 1992) using [^3 H]TCP in the
presence of (+)MK801 for site 2 and [^3 HMK801 for site 1 except that

Test [2] concerns extracellular dopamine in the nucleus accumbens. Conditions: literature; cited from earlier work.
For test [3], the target named is NMDA receptor. Particulars: Table 2; literature values (footnotes 1 and 2); read-out: NMDA Induced Current IC50; cited from earlier work.
The mark [4] stands for this setting: Table 2, nM ± SD, rat striatum, read-out: [^3 H]CFT Binding IC50.

T1 sequence (P23977 whole entry): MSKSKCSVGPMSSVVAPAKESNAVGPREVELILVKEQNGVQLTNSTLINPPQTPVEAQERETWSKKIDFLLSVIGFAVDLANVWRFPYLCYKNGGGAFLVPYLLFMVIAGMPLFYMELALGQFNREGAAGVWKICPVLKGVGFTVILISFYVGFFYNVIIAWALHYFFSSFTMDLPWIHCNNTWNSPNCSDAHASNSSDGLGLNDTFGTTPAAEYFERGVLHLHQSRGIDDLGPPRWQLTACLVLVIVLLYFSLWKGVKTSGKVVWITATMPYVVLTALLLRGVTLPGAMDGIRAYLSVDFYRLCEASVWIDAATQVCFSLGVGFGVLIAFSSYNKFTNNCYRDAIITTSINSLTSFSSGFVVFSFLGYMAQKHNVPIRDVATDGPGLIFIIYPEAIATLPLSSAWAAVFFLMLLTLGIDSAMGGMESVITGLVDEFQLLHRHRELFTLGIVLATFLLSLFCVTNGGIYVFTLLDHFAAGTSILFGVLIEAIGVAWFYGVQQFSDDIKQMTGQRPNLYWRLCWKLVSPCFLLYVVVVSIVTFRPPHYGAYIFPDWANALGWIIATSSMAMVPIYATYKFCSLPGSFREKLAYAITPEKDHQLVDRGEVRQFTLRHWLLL

As to `CN1[C@H](Cc2ccccc2)C[C@H]2Cc3ccccc3[C@H]21` (relative stereo) [RTI-4793-14, (2RS, 3aSR, 8aRS)-1,2,3a,8,8a-Hexahydro-2-benzyl-1-methyl-indeno[1,2-b]pyrrole], the “[^3 H]CFT binding inhibition in words” value at DA transporter is given as “moderate potency”. Further, the IC50 at DA transporter (setting [4]) was 850 ± 101 nM; in the test with NMDA receptor [1] it was 768000 nM; on PCP site 1 it was over 36000 nM; at PCP site 1 (Table 1, [^3 H]MK801), over 20000 nM; on PCP site 1 (Table 2, nM ± SD), over 36000 nM; at PCP site 1 (Table 3, guinea pig membranes) it was over 2000 nM. The “inhibition of NMDA-induced current responses in words” value in the test on NMDA receptor [1] is on record as “low potency; also recorded: very low potency inhibitor”. In addition, in the test with PCP site 1, the “affinity for PCP site 1 in words” value was “low affinity”.
Consider `CNC1CC(c2ccc(Cl)c(Cl)c2)c2ccccc21` (stereo not shown) [Indatraline], for which the “[^3 H]CFT binding inhibition in words” value on DA transporter is “potently inhibited; also recorded: potent inhibitor”. Besides, the “effect on extracellular DA levels” value in test [2] is reported as “increase extracellular DA levels”. For the same compound, in the test with NMDA receptor [1], the “inhibition of NMDA-induced current responses in words” value is “very low potency” and the IC50 amounted to 95000 nM. For the same compound, at PCP site 1, the IC50 was over 100000 nM and the “affinity for PCP site 1 in words” value was “negligible affinity”. The compound also displayed an IC50 on PCP site 1 (Table 2, nM ± SD) of over 100000 nM.
Take `C[C@]12N[C@H](Cc3ccccc31)c1ccccc12` [(+)-MK801]: on DA transporter, the “[^3 H]CFT binding inhibition in words” value was “negligible affinity”. Moreover, the concentration for half-maximal inhibition (IC50) was over 15000 nM on DA transporter (setting [4]); 4.58 ± 0.19 nM at PCP site 1 (Table 1, [^3 H]MK801); 4.58 ± 0.19 nM at PCP site 1 (Table 2, nM ± SD). For the same compound, in the test with PCP site 1, the “affinity for PCP site 1 in words” value is on record as “high affinity”. Also, the “greater potency at PCP site 1 than PCP” value in the test on PCP site 1 (versus PCP) is listed as 25 fold.
Take `c1ccc(C2(N3CCCCC3)CCCCC2)cc1` [PCP, phencyclidine]: the IC50 at DA transporter was over 1500 nM; at PCP site 1 (Table 1, [^3 H]MK801), 117 ± 3 nM; at PCP site 1 (Table 2, nM ± SD), 117 ± 3 nM; on NMDA receptor [3], 2000 nM. The “[^3 H]CFT binding inhibition in words” value at DA transporter is “lower affinity”. Moreover, the “effect on extracellular DA levels” value in test [2] was “increase extracellular DA levels”.

Broadly, the IC50 is the concentration at which inhibition is half-maximal.
